Source: patent US20250376461A1, “INDAZOLE DERIVATIVES FOR TREATING TRPM3-MEDIATED DISORDERS” (Katholieke Universiteit Leuven, priority 2022, published 2025)

Molecular target: T1, mouse TRPM3α2 (mTRPM3) ion channel (Mus musculus, UniProt J9SQF3)
T1 construct: expressed in transfected cells; host or cells: flip-in HEK293
Assay: TRPM3 ion channel driven Ca2+ uptake, Fluo-4 AM assay, mTRPM3alpha2 overexpressing flip-in HEK293 cells stimulated with pregnenolone sulfate (50 μM)
Format: cell-based
Conditions: mTRPM3 overexpressing HEK293 cells stimulated with pregnenolone sulfate (50 μM), activity ranges A, B, C
Outline: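 Flip-in HEK293 cells overexpressing mTRPM3α2, loaded with Fluo-4 AM, added at ±2000 cells/well to plates holding compound plus 50 μM pregnenolone sulfate in Ca2+-containing Krebs buffer. Fluorescence (ex 485/em 535 nm) read immediately. Percent inhibition normalised between vehicle and positive-control inhibitor; IC50 derived.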

T1 sequence (J9SQF3 1-1709 isoform J9SQF3-12): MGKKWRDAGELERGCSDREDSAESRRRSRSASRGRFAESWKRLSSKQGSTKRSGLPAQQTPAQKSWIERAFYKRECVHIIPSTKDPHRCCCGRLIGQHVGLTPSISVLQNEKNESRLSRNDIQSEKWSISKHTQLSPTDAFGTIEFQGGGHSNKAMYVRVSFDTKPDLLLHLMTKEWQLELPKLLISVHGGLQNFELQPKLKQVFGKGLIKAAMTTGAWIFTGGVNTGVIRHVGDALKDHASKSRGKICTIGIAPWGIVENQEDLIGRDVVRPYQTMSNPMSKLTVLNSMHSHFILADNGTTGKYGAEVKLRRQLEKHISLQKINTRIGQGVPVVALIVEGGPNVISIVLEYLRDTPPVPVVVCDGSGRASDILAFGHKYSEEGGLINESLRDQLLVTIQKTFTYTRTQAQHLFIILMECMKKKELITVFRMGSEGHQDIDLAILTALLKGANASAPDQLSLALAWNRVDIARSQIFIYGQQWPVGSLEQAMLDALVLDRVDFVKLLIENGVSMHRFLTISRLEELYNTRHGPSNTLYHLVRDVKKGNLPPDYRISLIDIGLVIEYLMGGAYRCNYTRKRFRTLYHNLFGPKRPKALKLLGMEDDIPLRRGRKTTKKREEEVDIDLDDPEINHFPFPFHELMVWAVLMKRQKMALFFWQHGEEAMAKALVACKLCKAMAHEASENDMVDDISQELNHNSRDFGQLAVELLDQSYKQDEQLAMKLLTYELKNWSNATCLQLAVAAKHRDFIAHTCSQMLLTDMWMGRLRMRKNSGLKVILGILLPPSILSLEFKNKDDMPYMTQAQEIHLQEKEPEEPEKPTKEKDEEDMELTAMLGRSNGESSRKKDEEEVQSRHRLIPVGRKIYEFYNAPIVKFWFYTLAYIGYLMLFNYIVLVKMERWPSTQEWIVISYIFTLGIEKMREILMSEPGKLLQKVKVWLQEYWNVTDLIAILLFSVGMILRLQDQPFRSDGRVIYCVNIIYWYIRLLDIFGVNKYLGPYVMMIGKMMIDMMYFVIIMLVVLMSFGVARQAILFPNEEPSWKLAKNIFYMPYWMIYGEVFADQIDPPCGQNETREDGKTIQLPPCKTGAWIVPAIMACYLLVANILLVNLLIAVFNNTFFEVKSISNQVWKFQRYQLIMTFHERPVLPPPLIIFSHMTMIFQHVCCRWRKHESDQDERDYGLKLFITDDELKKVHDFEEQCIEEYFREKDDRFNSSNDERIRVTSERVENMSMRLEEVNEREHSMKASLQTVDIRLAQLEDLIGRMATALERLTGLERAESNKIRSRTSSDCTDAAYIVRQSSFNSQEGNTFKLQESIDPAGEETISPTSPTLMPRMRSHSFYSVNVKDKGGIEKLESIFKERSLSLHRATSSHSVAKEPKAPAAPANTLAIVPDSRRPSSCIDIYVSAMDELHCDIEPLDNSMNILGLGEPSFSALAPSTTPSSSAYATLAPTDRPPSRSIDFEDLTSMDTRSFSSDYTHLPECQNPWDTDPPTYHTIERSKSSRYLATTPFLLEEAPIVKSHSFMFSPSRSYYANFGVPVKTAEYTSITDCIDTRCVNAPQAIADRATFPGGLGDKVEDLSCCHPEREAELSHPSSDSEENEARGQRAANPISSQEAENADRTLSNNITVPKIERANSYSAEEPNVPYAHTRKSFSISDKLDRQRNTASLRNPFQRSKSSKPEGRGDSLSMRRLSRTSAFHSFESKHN

Row | IC50 [nM] | Structure (SMILES)
1 | 1000 to 20000 | Cn1nc2ccc(OCc3cccnc3C(F)(F)F)cc2c1C(=O)NC1(CO)CCNC1=O (single isomer, unassigned) [Cpd 177 - En2]
2 | 1000 to 20000 | Cc1ncc(COc2ccc3nn(C)c(C(=O)N[C@H](C(N)=O)[C@@H](C)O)c3c2)o1 [Cpd 142, (2S,3R)-3-hydroxy-2-({2-methyl-5-[(2-methyl-1,3-oxazol-5-yl)methoxy]-2H-indazol-3-yl}formamido)butanamide]
3 | < 1000 | Cn1nccc1COc1ccc2nn(C)c(C(=O)NC(C)(CO)C(N)=O)c2c1 (single isomer, unassigned) [Cpd 154 - En2]
4 | 1000 to 20000 | CN(C)CC(C)(CC(F)F)NC(=O)c1c2cc(OCc3ccccn3)ccc2nn1C (single isomer, unassigned) [Cpd 229 - En1, N-[1-(dimethylamino)-4,4-difluoro-2-methylbutan-2-yl]-2-methyl-5-[(pyridin-2-yl)methoxy]-2H-indazole-3-carboxamide]
5 | 1000 to 20000 | Cn1nc2ccc(OCc3cccnc3C(F)(F)F)cc2c1C(=O)N[C@@H]1COC[C@@H]1O (single isomer, unassigned) [Cpd 010 - Dia2]
6 | 1000 to 20000 | Cn1nc2ccc(OCc3ccccn3)cc2c1C(=O)NC(CO)c1ccccn1 (single isomer, unassigned) [Cpd 221 - En1]
7 | 1000 to 20000 | CN1CCC(NC(=O)c2c3cc(OCc4cccnc4C(F)(F)F)ccc3nn2C)C1 (stereo not drawn) [Cpd 040, 2-methyl-N-(1-methylpyrrolidin-3-yl)-5-{[2-(trifluoromethyl)pyridin-3-yl]methoxy}-2H-indazole-3-carboxamide]
8 | > 20000 | Cn1nc2ccc(OCc3ccccn3)cc2c1C(=O)NC(CCO)c1ccc(F)cc1 (single isomer, unassigned) [Cpd 223 - En1]
9 | > 20000 | Cn1nc2ccc(OCc3ccccn3)cc2c1C(=O)NC1(CO)CC1C(F)F (single isomer, unassigned) [Cpd 237 - En2]
10 | < 1000 | Cn1nc2ccc(OCc3ccccc3F)cc2c1C(=O)NC(C)(CO)CC(F)F (single isomer, unassigned) [Cpd 203 - En2]
11 | 1000 to 20000 | Cc1ncsc1COc1ccc2nn(C)c(C(=O)NC3CCN(C)C3)c2c1 (stereo not drawn) [Cpd 075, 2-methyl-5-[(4-methyl-1,3-thiazol-5-yl)methoxy]-N-(1-methylpyrrolidin-3-yl)-2H-indazole-3-carboxamide]
12 | 1000 to 20000 | Cc1ncsc1COc1ccc2nn(C)c(C(=O)NC3(CO)CCNC3=O)c2c1 (single isomer, unassigned) [Cpd 163 - En2, N-[3-(hydroxymethyl)-2-oxopyrrolidin-3-yl]-2-methyl-5-[(4-methyl-1,3-thiazol-5-yl)methoxy]-2H-indazole-3-carboxamide]
13 | 1000 to 20000 | Cn1nc2ccc(OCC3CC3)cc2c1C(=O)N[C@H](CO)C(N)=O [Cpd 136, (2R)-2-{[5-(cyclopropylmethoxy)-2-methyl-2H-indazol-3-yl]formamido}-3-hydroxypropanamide]
14 | < 1000 | C[C@@H](NC(=O)c1c2cc(OCC3CC3)ccc2nn1C)C(N)=O [Cpd 121, (2R)-2-{[5-(cyclopropylmethoxy)-2-methyl-2H-indazol-3-yl]formamido}propanamide]
15 | 1000 to 20000 | Cn1nc2ccc(OCc3cccnc3C(F)(F)F)cc2c1C(=O)N[C@@H]1COC[C@@H]1O (single isomer, unassigned) [Cpd 010 - Dia1]
16 | < 1000 | Cn1nc2ccc(OCc3ccccc3)cc2c1C(=O)NCc1cccc(O)n1 [Cpd 025, 5-(benzyloxy)-N-[(6-hydroxypyridin-2-yl)methyl]-2-methyl-2H-indazole-3-carboxamide]
17 | 1000 to 20000 | Cn1nc2ccc(OCc3ccccn3)cc2c1C(=O)NC1CNCC(F)(F)C1 (single isomer, unassigned) [Cpd 214 - En2]
18 | 1000 to 20000 | Cn1nc2ccc(OCc3cccnc3C(F)(F)F)cc2c1C(=O)NC1CCN(CCO)C1=O (stereo not drawn) [Cpd 090, N-[1-(2-hydroxyethyl)-2-oxopyrrolidin-3-yl]-2-methyl-5-{[2-(trifluoromethyl)pyridin-3-yl]methoxy}-2H-indazole-3-carboxamide]
